Test results from patent publication US7179814B2, “Agents for controlling plant pests” (priority 1998, dated 2007).

Legend:
Format in all cases: in vivo
Sphaerotheca fuliginea = test: Sphaerotheca test (cucumber)/protective; conditions: 10 g/ha, single active compound, 10 days after inoculation
Method: (§1) To produce a suitable preparation of active compound, 1 part by weight of active compound or active compound combination is mixed with the stated amounts of solvent and emulsifier, and the concentrate is diluted with water to the desired concentration, or a commercial formulation of active compound or active compound combination is diluted with water to the desired concentration.
To test for protective activity, young plants are sprayed with the commercial active compound preparation at the stated application rate. After the spray coating has dried on, the plants are inoculated with an aqueous spore suspension of Sphaerotheca fuliginea. The plants are then placed in a greenhouse at approximately 23° C. and a relative atmospheric humidity of approximately 70%.
Evaluation is carried out 10 days after the inoculation. 0% means an efficacy which corresponds to that of the control, whereas an efficacy of 100% means that no infection is observed.

[1] = system: Diabrotica balteata - larvae in the soil; test: Critical concentration test/soil insects, Diabrotica balteata (Example Q); conditions: 1.25 ppm in soil; efficacy calculated from number of emerged maize plants
Method: To produce a suitable preparation of active compound, 1 part by weight of active compound is mixed with the stated amount of solvent, the stated amount of emulsifier is added and the concentrate is diluted with water to the desired concentration. Here, the concentration of the active compound in the preparation is almost irrelevant; only the amount by weight of active compound per volume unit of soil, which is stated in ppm (mg/l), matters. The soil is filled into 0.5 l pots and these are allowed to stand at 20° C.
Immediately after preparation, 5 maize corns are placed into each pot. After 3 days, the test insects are placed into the treated soil. After a further 7 days, the efficacy is determined. The efficacy is calculated from the number of maize plants which have emerged.

Spodoptera frugiperda = test: Critical concentration test/soil insects, Spodoptera frugiperda; conditions: 120 h, 5 days after infestation, read-out: Kill in %
Method: To produce a suitable preparation of active compound, 1 part by weight of the active compound or the active compound mixture is mixed with the stated amounts of solvent and emulsifier, and the concentrate is diluted with water to the desired concentration.
The active compound preparation is mixed intimately with soil. Here, the concentration of the active compound in the preparation is almost irrelevant; only the amount by weight of active compound or active compound mixture per volume unit of soil, which is stated in ppm (mg/l), matters.
Soil is filled into 0.5 l pots and these are allowed to stand at 20° C. Immediately after preparation, 3 pre-germinated maize corns are placed into each pot. After the maize corns have emerged, boring sleeves are placed onto the pots. 9 days after preparation, the maize is populated with the test insects. After a further 5 days, the kill in % is determined. 100% means that all test insects have been killed; 0% means that the number of insects which are still alive is the same as for the untreated control.

Botrytis cinerea = test: Botrytis test (bean)/protective; conditions: single active compound
Method: as §1
To test for protective activity, young plants are sprayed with the active compound preparation at the stated application rate. After the spray coating has dried on, 2 small pieces of agar colonized by Botrytis cinerea are placed onto each leaf. The inoculated plants are placed in a dark chamber at approximately 20° C. and 100% relative atmospheric humidity.
2 days after the inoculation, the size of the disease spots on the leaves is evaluated. 0% means an efficacy which corresponds to that of the control, whereas an efficacy of 100% means that no infection is observed.

N#C/N=C1/SCCN1Cc1ccc(Cl)nc1 [formula (I)]
Efficacy in % (Sphaerotheca fuliginea): 0% | Kill in % at active compound concentrations in ppm [1]: 1.25 ppm = 50% | pest or weed control at 5 ppm (Spodoptera frugiperda; 5.00 ppm in soil): 0% | pest or weed control at 10 ppm (Spodoptera frugiperda; 10.00 ppm in soil): 50% | pest or weed control at 20 ppm (Spodoptera frugiperda; 20.00 ppm in soil): 100% | Efficacy in % (Botrytis cinerea; 10 g/ha, 2 days after inoculation): 0% | Efficacy in % (Botrytis cinerea; 40 g/ha): 0% | Efficacy in % (Botrytis cinerea; 500 g/ha): 0%
